Test results as given in PubChem BioAssay AID248 (DTP/NCI, 2004).
Several values for one entry are separate records, joined by “and”; a condition that tells them apart may be missing. Identical values can stand only once. Toxic doses and inconclusive results are not listed. Cut-off read from the data, not from the text of the source: active = T/C of 150% or more; inactive = T/C below 125%.

System: L1210 leukemia ip in BDF1 mice, survival T/C
Assay: NCI In Vivo Anticancer Drug Screen. Data for tumor model L1210 Leukemia (intraperitoneal) in B6D2F1 (BDF1) mice
Conditions: endpoint: mean survival time, higher = longer survival
In short: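 Each compound was tested against a transplantable tumor grown in mice. The endpoint was survival, with treated animals benchmarked against vehicle controls as a simple ratio.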

[1] = dose: 25.0 mg/kg/injection, schedule: Q01DX009 (ip), vehicle: saline with Tween-80
[2] = dose: 50.0 mg/kg/injection, schedule: Q01DX009 (ip), vehicle: saline with Tween-80
[3] = dose: 200.0 mg/kg/injection, schedule: Q01DX009 (ip), vehicle: saline with Tween-80
[4] = dose: 100.0 mg/kg/injection, schedule: Q01DX009 (ip), vehicle: saline with Tween-80
[5] = dose: 100.0 mg/kg/injection, schedule: Q01DX001 (ip), vehicle: carboxymethylcellulose (CMC)
[6] = dose: 200.0 mg/kg/injection, schedule: Q01DX001 (ip), vehicle: carboxymethylcellulose (CMC)
[7] = dose: 400.0 mg/kg/injection, schedule: Q01DX001 (ip), vehicle: carboxymethylcellulose (CMC)
[8] = dose: 50.0 mg/kg/injection, schedule: Q01DX001 (ip), vehicle: saline
[9] = dose: 100.0 mg/kg/injection, schedule: Q01DX001 (ip), vehicle: saline
[10] = dose: 200.0 mg/kg/injection, schedule: Q01DX001 (ip), vehicle: saline
[11] = dose: 400.0 mg/kg/injection, schedule: Q01DX001 (ip), vehicle: saline
[12] = dose: 100.0 mg/kg/injection, schedule: Q04DX002 (ip), vehicle: Klucel (hydroxypropylcellulose) (HPC)
[13] = dose: 200.0 mg/kg/injection, schedule: Q04DX002 (ip), vehicle: Klucel (hydroxypropylcellulose) (HPC)
[14] = dose: 400.0 mg/kg/injection, schedule: Q04DX002 (ip), vehicle: Klucel (hydroxypropylcellulose) (HPC)
[15] = dose: 100.0 mg/kg/injection, schedule: Q04DX003 (ip), vehicle: Klucel (hydroxypropylcellulose) (HPC)
[16] = dose: 200.0 mg/kg/injection, schedule: Q04DX003 (ip), vehicle: Klucel (hydroxypropylcellulose) (HPC)
[17] = dose: 400.0 mg/kg/injection, schedule: Q04DX003 (ip), vehicle: Klucel (hydroxypropylcellulose) (HPC)

Measured: T/C

O=C(c1ccccc1)c1cc(-c2ccccc2)n(C2CCCCC2)c1
inactive: [1] 96 % of control and 120 % of control | [2] 94 % of control and 95 % of control and 98 % of control | [3] 91 % of control and 92 % of control

O=C(O)c1c(I)c(I)c(I)c(I)c1C(=O)c1ccccc1
inactive: [2] 103 % of control | [4] 115 % of control | [3] 112 % of control

Cc1cccc(C(=O)Cl)c1[N+](=O)[O-]
inactive: dose: 50.0 mg/kg/injection, schedule: Q01DX001 (ip), vehicle: carboxymethylcellulose (CMC) 95 % of control | [5] 93 % of control | [6] 90 % of control | [7] 95 % of control

CN(C)CCCOc1c2ccccc2cc2ccccc12
inactive: dose: 1.0 mg/kg/injection, schedule: Q01DX015 (ip), vehicle: carboxymethylcellulose (CMC) 92 % of control | dose: 2.0 mg/kg/injection, schedule: Q01DX015 (ip), vehicle: carboxymethylcellulose (CMC) 92 % of control | dose: 4.0 mg/kg/injection, schedule: Q01DX015 (ip), vehicle: carboxymethylcellulose (CMC) 92 % of control | dose: 8.0 mg/kg/injection, schedule: Q01DX015 (ip), vehicle: carboxymethylcellulose (CMC) 104 % of control and 90 % of control | dose: 16.0 mg/kg/injection, schedule: Q01DX015 (ip), vehicle: carboxymethylcellulose (CMC) 98 % of control

O=[N+]([O-])c1ccc(N/N=C/CCc2ccccc2O)c([N+](=O)[O-])c1
inactive: [8] 112 % of control | [9] 98 % of control | [10] 93 % of control | [11] 98 % of control

CCc1c(O)c2ccc3ccccc3c2oc1=O
inactive: dose: 100.0 mg/kg/injection, schedule: Q04DX003 (ip), vehicle: saline 97 % of control | dose: 200.0 mg/kg/injection, schedule: Q04DX003 (ip), vehicle: saline 94 % of control | dose: 400.0 mg/kg/injection, schedule: Q04DX003 (ip), vehicle: saline 94 % of control

CCN(Cc1ccccc1)C(=O)Nc1ccccc1
inactive: [12] 101 % of control | [13] 93 % of control | [14] 97 % of control

Cc1c([N+](=O)[O-])cc(C(C)(C)C)c(OC(=O)Nc2ccc(Cl)cc2)c1[N+](=O)[O-]
inactive: [15] 95 % of control | [16] 92 % of control

CC1(C)c2ccccc2C(C)(C)[N+]1(C)C
inactive: dose: 100.0 mg/kg/injection, schedule: Q01DX001 (ip), vehicle: other 101 % of control

CCOC(=O)Nc1cccc2ccccc12
inactive: [15] 101 % of control | [16] 97 % of control | [17] 98 % of control

COc1nccc(SC)n1
inactive: dose: 95.0 mg/kg/injection, schedule: Q04DX003 (ip), vehicle: Klucel (hydroxypropylcellulose) (HPC) 110 % of control | [15] 107 % of control and 91 % of control | dose: 135.0 mg/kg/injection, schedule: Q04DX003 (ip), vehicle: Klucel (hydroxypropylcellulose) (HPC) 105 % of control | [16] 96 % of control and 97 % of control

CNC(=O)c1cn(C2OC(CO)C(O)C2O)c2ncnc(N)c12 (stereo not drawn)
inactive: dose: 88.0 mg/kg/injection, schedule: Q01DX001 (ip), vehicle: water 120 % of control | dose: 400.0 mg/kg/injection, schedule: Q01DX001 (ip), vehicle: water 117 % of control

Oc1cccc(C(c2ccccc2)c2ccccc2)c1
inactive: dose: 100.0 mg/kg/injection, schedule: Q01DX001 (ip), vehicle: saline with Tween-80 94 % of control | dose: 200.0 mg/kg/injection, schedule: Q01DX001 (ip), vehicle: saline with Tween-80 94 % of control

Nc1nc(N)c(NC/C=C\c2ccc([N+](=O)[O-])cc2)c(-c2ccccc2)n1
inactive: [8] 91 % of control | [9] 97 % of control | [10] 103 % of control | [11] 109 % of control

O=C(OCC(OC(=O)c1ccccc1)C(OC(=O)c1ccccc1)C(COC(=O)c1ccccc1)OC(=O)c1ccccc1)c1ccccc1 (stereo not drawn)
inactive: [12] 93 % of control | [13] 105 % of control | [14] 93 % of control

O=C(O)CN1C(=O)c2ccccc2C1=O
inactive: [1] 91 % of control | [2] 98 % of control | [4] 98 % of control | dose: 100.0 mg/kg/injection, schedule: Q04DX002 (ip), vehicle: saline with Tween-80 100 % of control | dose: 200.0 mg/kg/injection, schedule: Q04DX002 (ip), vehicle: saline with Tween-80 103 % of control | dose: 400.0 mg/kg/injection, schedule: Q04DX002 (ip), vehicle: saline with Tween-80 95 % of control

CCOC(Nc1cc(Cl)cc(Cl)c1)C(=O)c1ccccc1 (stereo not drawn)
inactive: [9] 97 % of control | [10] 91 % of control | [11] 91 % of control

CCC(C(=O)O)N1C(=O)c2ccccc2C1=O (stereo not drawn)
inactive: [9] 102 % of control | [10] 97 % of control | [11] 103 % of control

NCCCCCCNC(=O)CCCCC(=O)NCCCCCCN
inactive: dose: 8.0 mg/kg/injection, schedule: Q01DX Z (ip), vehicle: water 88 % of control | dose: 16.0 mg/kg/injection, schedule: Q01DX Z (ip), vehicle: water 86 % of control | dose: 32.0 mg/kg/injection, schedule: Q01DX Z (ip), vehicle: water 89 % of control | dose: 64.0 mg/kg/injection, schedule: Q01DX Z (ip), vehicle: saline 90 % of control | dose: 64.0 mg/kg/injection, schedule: Q01DX Z (ip), vehicle: water 91 % of control

O=[N+]([O-])c1cccc(S(=O)(=O)OCn2ncc3ccc([N+](=O)[O-])cc32)c1
inactive: dose: 5.0 mg/kg/injection, schedule: Q01DX001 (ip), vehicle: saline 94 % of control | dose: 10.0 mg/kg/injection, schedule: Q01DX001 (ip), vehicle: saline 100 % of control | dose: 20.0 mg/kg/injection, schedule: Q01DX001 (ip), vehicle: saline 100 % of control | dose: 40.0 mg/kg/injection, schedule: Q01DX001 (ip), vehicle: saline 97 % of control

CCOc1ccccc1NC(=O)Nc1ccccc1OC
inactive: dose: 100.0 mg/kg/injection, schedule: Q01DX009 (ip), vehicle: Klucel (hydroxypropylcellulose) (HPC) 103 % of control | [15] 103 % of control | dose: 200.0 mg/kg/injection, schedule: Q01DX009 (ip), vehicle: Klucel (hydroxypropylcellulose) (HPC) 98 % of control | [16] 96 % of control | dose: 400.0 mg/kg/injection, schedule: Q01DX009 (ip), vehicle: Klucel (hydroxypropylcellulose) (HPC) 98 % of control | [17] 100 % of control

C[N-]C.C[N-]C.[Cl][Pt+2][Cl]
inactive: [9] 113 % of control | dose: 100.0 mg/kg/injection, schedule: Q01DX009 (ip), vehicle: saline 100 % of control | [10] 107 % of control | dose: 200.0 mg/kg/injection, schedule: Q01DX009 (ip), vehicle: saline 88 % of control | [11] 119 % of control

CCCCCC[P+](c1ccccc1)(c1ccccc1)c1ccccc1
inactive: dose: 6.25 mg/kg/injection, schedule: Q01DX009 (ip), vehicle: saline 99 % of control | dose: 6.25 mg/kg/injection, schedule: Q04DX003 (ip), vehicle: saline 101 % of control | dose: 12.5 mg/kg/injection, schedule: Q01DX009 (ip), vehicle: saline 107 % of control | dose: 12.5 mg/kg/injection, schedule: Q04DX003 (ip), vehicle: saline 100 % of control | dose: 25.0 mg/kg/injection, schedule: Q01DX009 (ip), vehicle: saline 98 % of control | dose: 25.0 mg/kg/injection, schedule: Q04DX003 (ip), vehicle: saline 103 % of control

Cc1ccc2cccnc2c1
inactive: [5] 93 % of control | [6] 93 % of control | [7] 86 % of control

Cn1c(=O)c2[nH]c(C3CCCC3)nc2n(C)c1=O
inactive: [8] 96 % of control | [9] 96 % of control | [10] 96 % of control

C[Si](C)(C)Cc1ccc(Cl)cc1
inactive: dose: 111.0 mg/kg/injection, schedule: Q01DX Z (ip), vehicle: saline 104 % of control | dose: 166.0 mg/kg/injection, schedule: Q01DX Z (ip), vehicle: saline 91 % of control | dose: 250.0 mg/kg/injection, schedule: Q01DX Z (ip), vehicle: saline 98 % of control
